The text below walks through data of patent US10479794B2, “Cyclic ether derivatives of pyrazolo[1,5-a]pyrimidine-3-carboxyamide” (Boehringer Ingelheim International GmbH, priority 2015, dated 2019).

In this series the test system is human MDR1 P-gp. Kind of series: Assessment of efflux in MDCK cells transfected with the human MDR1 gene (MDCK assay). The settings on record: dog; for efflux ratio at 2 h: MDCK-MDR1, pH 7.4, MDCK-MDR1, Papp (b-a) divided by Papp (a-b); for Papp A→B at 2 h: MDCK-MDR1, pH 7.4, MDCK-MDR1 monolayers, apical-to-basal, pH 7.4, 37° C. Type of series: in vitro ADME, canine. As for the experimental part:
Assessment of Efflux in Madin-Darby Canine Kidney Cells Transfected with the Human MDR1 Gene (MDCK Assay)
Apparent permeability coefficients (PE) of the compounds across the MDCK-MDR1 cell monolayers are measured (pH 7.4, 37° C.) in apical-to-basal (AB) and basal-to-apical (BA) transport direction. AB permeability (PEAB) represents drug absorption from the blood into the brain and BA permeability (PEBA) drug efflux from the brain back into the blood via both passive permeability as well as active transport mechanisms mediated by efflux and uptake transporters that are expressed on the MDCK-MDR1 cells, predominantly by the overexpressed human MDR1 P-gp. The compounds are assigned to permeability/absorption classes by comparison of the AB permeabilities with the AB permeabilities of reference compounds with known in vitro permeability and oral absorption in the human. Identical or similar permeabilities in both transport directions indicate passive permeation, vectorial permeability points to additional active transport mechanisms. Higher PEBA than PEAB indicates the involvement of active efflux mediated by MDR1 P-gp. Active transport is concentration-dependently saturable.
MDCK-MDR1 cells (1-2×10e5 cells/1 cm2 area) are seeded on filter inserts (Costar transwell polycarbonate or PET filters, 0.4 μm pore size) and cultured (DMEM) for 7 days. Subsequently, the MDR1 expression is boosted by culturing the cells with 5 mM sodium butyrate in full medium for 2 days. Compounds are dissolved in appropriate solvent (like DMSO, 1-20 mM stock solutions). […] The transport solution (TL) is applied to the apical or basolateral donor side for measuring A-B or B-A permeability (3 filter replicates), respectively. The receiver side contains the same buffer as the donor side. Samples are collected at the start and end of experiment from the donor and at various time intervals for up to 2 hours also from the receiver side for concentration measurement by HPLC-MS/MS or scintillation counting. Sampled receiver volumes are replaced with fresh receiver solution. Efflux ratio is calculated dividing the Papp (b-a) values by the Papp (a-b) values.

Turning to `Cc1nn2cc(C3CC3)cnc2c1C(=O)NC1(c2ccc(C(F)(F)F)cn2)CCOCC1` [Example 21], the efflux ratio at 2 h is 0.6 and the Papp A→B at 2 h is 94 ×10⁻⁶ cm/s. `Cc1nn2cc(C3CC3)cnc2c1C(=O)NC1(c2ccc(C(F)(F)F)nc2)CCOCC1O` (racemic) [Example 51] came in with a Papp A→B at 2 h of 11 ×10⁻⁶ cm/s. On the same count and under the same terms, the figure for `Cc1cnc2c(C(=O)NC3(c4ccc(C(F)(F)F)cc4F)CCOCC3O)cnn2c1` (racemic) [Example 46] is 60 ×10⁻⁶ cm/s; for `Cc1cnc2c(C(=O)NC3(c4ccc(C(F)(F)F)cc4F)CCOCC3O)cnn2c1` (single isomer, unassigned) [Example 81a] it is 60 ×10⁻⁶ cm/s. Consider `O=C(NC1(c2ccc(C(F)(F)F)cc2)CCOC1)c1cnn2cc(C3CC3)cnc12` (racemic) [Example 37], for which the efflux ratio at 2 h worked out at 0.5 and the Papp A→B at 2 h amounted to 86 ×10⁻⁶ cm/s. In the same order, the values of `Cc1cnc2c(C(=O)NC3(c4ccc(C(F)(F)F)cc4F)CCOCC3)cnn2c1` [Example 2] are 0.6 and 84 ×10⁻⁶ cm/s. In the same order, the values of `Cc1nn2cc(C3CC3)cnc2c1C(=O)NC1(c2ccc(C(F)(F)F)nc2)CCOCC1` [Example 25] are 0.8 and 100 ×10⁻⁶ cm/s. Take `O=C(NC1(c2ccc(C(F)(F)F)cc2F)COCC1O)c1cnn2cc(C3CC3)cnc12` (single isomer, unassigned) [Example 69]: the efflux ratio at 2 h came out at 1.3 and the apparent permeability from apical to basolateral (Papp A→B) at 2 h was found to be 25 ×10⁻⁶ cm/s. Taken in the same sequence, the figures for `O=C(NC1(c2ccc(C(F)(F)F)cc2F)CCOCC1)c1cnn2cc(F)cnc12` [Example 3] were 0.7 and 97 ×10⁻⁶ cm/s. As to `O=C(NC1(c2ccc(C(F)(F)F)cc2F)CCOCC1O)c1cnn2cc(C3CC3)cnc12` (single isomer, unassigned) [Example 82a], the efflux ratio at 2 h was 1 and the apical-to-basolateral permeability (Papp A→B) at 2 h came out at 59 ×10⁻⁶ cm/s.

With `Cc1cnc2c(C(=O)NC3(c4ccc(C(F)(F)F)cc4F)CCOCC3(C)O)cnn2c1` (single isomer, unassigned) [Example 83a], the Papp A→B at 2 h amounted to 34 ×10⁻⁶ cm/s. On the same count and under the same terms, the figure for `CC1(O)COCCC1(NC(=O)c1cnn2cc(C3CC3)cnc12)c1ccc(C(F)(F)F)cc1F` (racemic) [Example 53] is 15 ×10⁻⁶ cm/s. In the case of `Cc1nn2cc(C3CC3)cnc2c1C(=O)NC1(c2ncc(C(F)(F)F)cc2F)CCOCC1` [Example 17], the efflux ratio at 2 h was 0.6 and the Papp A→B at 2 h was determined as 85 ×10⁻⁶ cm/s.

The term efflux ratio denotes a quotient of directional permeabilities that is used to spot active efflux. As a reminder, the Papp A→B is how fast a substance crosses the layer from the apical side. High values mean ready permeation, low ones poor permeation.
